According to article PMC12150210 (RSC Advances, 2025):

Target: hCG (whole human chorionic gonadotropin) (Homo sapiens, UniProt P0DN86)
Assay: microscale thermophoresis
Assay type: binding

Kd: 4.6 ± 3 µM
SMILES: CO[C@@]1(NC(=O)C2SC(=C(C(N)=O)C(=O)O)S2)C(=O)N2C(C(=O)O)=C(CSc3nnnn3C)CS[C@@H]21 (stereo partly drawn) [Cefotetan, (6R,7S)-7-[[4-(2-amino-1-carboxy-2-oxoethylidene)-1,3-dithietane-2-carbonyl]amino]-7-methoxy-3-[(1-methyltetrazol-5-yl)sulfanylmethyl]-8-oxo-5-thia-1-azabicyclo[4.2.0]oct-2-ene-2-carboxylic acid]
